Reference: ChEMBL document CHEMBL1136544, “3-(2-carboxyethyl)-4,6-dichloro-1H-indole-2-carboxylic acid: an allosteric inhibitor of fructose-1,6-bisphosphatase at the AMP site” (Bioorg Med Chem Lett, 2003)

Key:
[1] = Inhibitory activity against Fructose-1,6-bisphosphatase (F16BPase) in human liver; format: tissue-based
[2] = target: T1, Fructose-1,6-bisphosphatase 1 (Sus scrofa, UniProt P00636); test: Inhibitory activity against Fructose-1,6-bisphosphatase (F16BPase) in porcine kidney; format: tissue-based
T1 sequence (P00636 whole entry): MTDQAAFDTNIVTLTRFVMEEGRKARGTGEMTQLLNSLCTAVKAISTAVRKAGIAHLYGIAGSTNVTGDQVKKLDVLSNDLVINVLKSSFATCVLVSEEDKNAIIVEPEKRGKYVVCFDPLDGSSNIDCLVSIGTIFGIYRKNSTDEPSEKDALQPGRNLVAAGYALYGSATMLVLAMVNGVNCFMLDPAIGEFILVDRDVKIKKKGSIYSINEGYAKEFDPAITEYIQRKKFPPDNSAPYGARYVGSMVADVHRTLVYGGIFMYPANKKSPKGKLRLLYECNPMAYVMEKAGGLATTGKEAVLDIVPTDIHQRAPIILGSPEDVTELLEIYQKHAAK

[3] = Inhibitory activity against Fructose-1,6-bisphosphatase (F16BPase) in rabbit liver; format: tissue-based, Oryctolagus cuniculus
[4] = Inhibitory activity against Fructose-1,6-bisphosphatase (F16BPase) in rat liver; format: tissue-based

Row | SMILES | IC50 [1] [nM] | further results
1 | COC(=O)CCc1c(C(=O)O)[nH]c2cc(Cl)cc(Cl)c12 | 7000 | 
2 | O=C(O)CCCc1c(C(=O)O)[nH]c2cc(Cl)cc(Cl)c12 | 1000 | 
3 | NC(=O)c1[nH]c2cc(Cl)cc(Cl)c2c1CCC(=O)O | > 10000 | 
4 | O=C(O)CCc1c(C(=O)NO)[nH]c2cc(Cl)cc(Cl)c12 | > 10000 | 
5 | O=C(O)Cc1c(C(=O)O)[nH]c2cc(Cl)cc(Cl)c12 | 2500 | 
6 | O=C(O)CCCCc1c(C(=O)O)[nH]c2cc(Cl)cc(Cl)c12 | 1200 | 
7 | Cn1c(C(=O)O)c(CCC(=O)O)c2c(Cl)cc(Cl)cc21 | > 10000 | 
8 | NC(=O)CCc1c(C(=O)O)[nH]c2cc(Cl)cc(Cl)c12 | 2200 | 
9 | O=C(O)CCc1c(C(=O)O)[nH]c2cc(Cl)cc(Cl)c12 |  | IC50 [2]: 1000 nM; IC50 [3]: 210 nM; IC50 [4]: 11000 nM
10 | CN(C)C(=O)CCc1c(C(=O)O)[nH]c2cc(Cl)cc(Cl)c12 | 1700 | 
11 | O=C(O)CCc1c(CO)[nH]c2cc(Cl)cc(Cl)c12 | > 10000 | 
12 | CCOC(=O)c1[nH]c2cc(Cl)cc(Cl)c2c1CCC(=O)O | > 10000 | 
13 | O=C(O)c1[nH]c2cc(Cl)cc(Cl)c2c1CCCO | 2700 | 
14 | O=C(CCc1c(C(=O)O)[nH]c2cc(Cl)cc(Cl)c12)NO | 1500 | 
15 | CN(C)C(=O)c1[nH]c2cc(Cl)cc(Cl)c2c1CCC(=O)O | > 10000 | 
